Values of other authors in US20150265683A1, “Stable aqueous composition comprising human insulin or an analogue or derivative thereof” (WOCKHARDT LIMITED, priority 2012, published 2015).

Settings: for duration of action: after administration

Substance | onset of action (begins to work) after administration | duration of action | onset of action (starts working) after administration
Regular insulin: Short-acting insulin | ≤ 30 min | 5 to 8 h | 
Insulin detemir |  |  | 1 to 2 h
Isophane Insulin: Intermediate-acting insulin |  | 16 to 24 h | 1 to 3 h
Gly(A21)-Arg(B31)-Arg(B32)-human insulin [Insulin glargine] |  |  | 1 to 2 h
Asp^B28 human insulin [insulin aspart] | 5 to 15 min | 3 to 4 h | 
Lys^B28 Pro^B29 human insulin [insulin lispro] | 5 to 15 min | 3 to 4 h | 
